Results published in patent US6855730B2, “3-methylidenyl-2-indolinone modulators of protein kinase” (Sugen, Inc., priority 1998, dated 2005).

Columns and labels:
[1] = target: T1, flkGST (Homo sapiens, UniProt P35968); test: bio flkGST assay; type: biochemical
T1 construct: GST

[2] = target: T2, PDGFR-β (Homo sapiens, UniProt P09619); test: Biochemical PDGFR assay (ELISA, PDGFR-β expressing NIH 3T3 cell lysate); conditions: read-out: bio PDGF IC50
T2 construct: host or cells: NIH 3T3
Description: This assay measures the in vitro kinase activity of PDGFR using ELISA.
Unless otherwise noted, the preparation of working solution-of the following reagents is the same as that for the Biochemical EGFR assay, above. • 1. […] 28D4C10 monoclonal anti-PDGFR antibody (Biochemistry Lab, SUGEN, Inc.). • 3. PBS (Dulbecco's Phosphate-Buffered Saline, Gibco Catalog No. 450-1300EB) • 4. TBST Buffer. • 5. Blocking Buffer. • 6. PDGFR-β expressing NIH 3T3 cell lysate (Screening Lab, SUGEN, Inc.). • 7. TBS Buffer. • 8. TBS+10% DMSO. • 9. […] MnCl2. • 11. Kinase buffer phosphorylation mix.
• 12. NUNC 96-well V bottom polypropylene plates (Applied Scientific Cat. No. AS-72092). • 13. Ethylenediaminetetraacetic acid (EDTA). • 14. Rabbit polyclonal anti-phosphotyrosine serum (Biochemistry Lab, SUGEN, Inc.). • 15. Goat anti-rabbit IgG peroxidase conjugate (Biosource Cat. No. ALI0404). • 16. 2,2′-azino-bis(3-ethylbenzthiazoline-6-sulfonic acid) (ABTS, Sigma Cat. No. A-1888). • 17. Hydrogen peroxide 30% solution (Fisher Cat. No. H325). • 18. ABTS/H2O2. • 19. 0.2 M HCl.
Procedure • 1. Coat Corning 96 well ELISA plates with 0.5 μg 28D4C10 in 100 μl PBS per well, store overnight at 4° C. • 2. Remove unbound 28D4C10 from wells by inverting plate to remove liquid. Wash 1× with dH2O. Pat the plate on a paper towel to remove excess liquid. • 3. Add 150 μl of Blocking Buffer to each well. Incubate for 30 min. at room temperature with shaking. • 4. Wash plate 3× with deionized water, then once with TBST. Pat plate on a paper towel to remove excess liquid and bubbles. • 5. Dilute lysate in HNTG (10 μg lysate/100 μl HNTG) • 6. Add 100 μl of diluted lysate to each well. Shake at room temperature for 60 min. • 7. Wash plates as described in 4, above. • 8. Add 80 μl working kinase buffer mix to ELISA plate containing captured PDGFR. • 9. Dilute test compound 1:10 in TBS in 96-well polypropylene plates (i.e., 10 μl compound+90 μl TBS). • 10. Add 10 μl diluted test compound to ELISA plate. […] Incubate for 30 minutes while shaking at room temperature. • 12. Add 10 μl ATP directly to all wells except negative control well (final well volume should be approximately 100 μl with 20 μM ATP in each well.) Incubate 30 minutes while shaking. • 13. After 30 minutes, stop reaction by adding 10 μl of 200 mM EDTA (pH 8.0) to each well. • 14. Wash 4× with deionized water, twice with TBST. • 15. Add 100 μl anti-phosphotyrosine (1:3000 dilution in TBST) per well. Incubate 30-45 min. at room temperature, with shaking. • 16. Wash as described in 4, above. • 17. Add 100 μl Biosource Goat anti-rabbit IgG peroxidase conjugate (1:2000 dilution in TBST) to each well. Incubate 30 min. at room temperature, with shaking. • 18. Wash as described in 4, above. • 19. Add 100 μl of ABTS/H2O2 solution to each well. • 20. Incubate 10 to 30 minutes with shaking. Remove any bubbles. • 21. If necessary stop reaction with the addition of 100 μl 0.2 M HCl per well. • 22. Read assay on Dynatech MR7000 ELISA reader: test filter: 410 nM, reference filter: 630 nM.

[3] = target: Myc-GyrB-FGFR fusion protein (Homo sapiens, UniProt P11362); test: Biochemical FGFR assay (ELISA); conditions: read-out: bio fgfR1 IC50
Chain of Myc-GyrB-FGFR fusion protein (P11362 478-767 limits assumed): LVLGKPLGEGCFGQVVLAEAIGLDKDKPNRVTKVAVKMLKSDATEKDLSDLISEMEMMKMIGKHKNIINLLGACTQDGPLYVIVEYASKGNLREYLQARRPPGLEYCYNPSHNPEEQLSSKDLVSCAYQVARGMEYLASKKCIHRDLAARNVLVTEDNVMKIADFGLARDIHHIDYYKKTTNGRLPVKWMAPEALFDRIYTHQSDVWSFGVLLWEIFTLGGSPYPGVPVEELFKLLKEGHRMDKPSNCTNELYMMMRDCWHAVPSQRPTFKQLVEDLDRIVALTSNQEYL

[4] = target: T3, chimeric receptor containing the EGFR extracellular domain and intracellular HER2 kinase domain (Homo sapiens, UniProt P04626); test: EGF Receptor-HER2 chimeric receptor assay in whole cells (ELISA); type: cell-based; conditions: read-out: HER-2 kinase IC50
T3 construct: fused on or other part: EGFR ectodomain + HER2 intracellular part, ATP-site indolinones: HER2's kinase
T3 sequence (P04626 720-1255 limits assumed, change not shown): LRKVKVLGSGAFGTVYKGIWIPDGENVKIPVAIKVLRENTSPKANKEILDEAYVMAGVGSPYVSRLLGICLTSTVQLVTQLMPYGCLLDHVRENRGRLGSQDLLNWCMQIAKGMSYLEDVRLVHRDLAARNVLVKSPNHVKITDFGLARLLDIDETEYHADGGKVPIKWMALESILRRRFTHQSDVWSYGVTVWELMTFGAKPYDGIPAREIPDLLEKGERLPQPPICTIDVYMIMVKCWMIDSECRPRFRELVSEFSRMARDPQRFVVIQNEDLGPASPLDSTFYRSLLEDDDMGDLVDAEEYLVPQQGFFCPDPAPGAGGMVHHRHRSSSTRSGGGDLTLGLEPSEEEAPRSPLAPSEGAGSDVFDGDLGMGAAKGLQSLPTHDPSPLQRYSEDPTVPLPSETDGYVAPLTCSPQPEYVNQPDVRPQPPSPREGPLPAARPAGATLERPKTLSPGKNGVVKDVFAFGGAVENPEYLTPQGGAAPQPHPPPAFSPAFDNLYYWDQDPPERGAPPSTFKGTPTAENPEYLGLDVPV
Description: EGF Receptor-HER2 Chimeric Receptor Assay In Whole Cells.
HER2 kinase activity in whole EGFR-NIH3T3 cells are measured as described below:
• a. […] 05-101 (UBI) (a monoclonal antibody recognizing an EGFR extracellular domain). • c. Anti-phosphotyrosine antibody (anti-Ptyr) (polyclonal) (see, Fendley, et al., supra). • d. Detection antibody: Goat anti-rabbit IgG horseradish peroxidase conjugate, TAGO, Inc., Burlingame, Calif. • e. TBST buffer:
• h. Stock reagents of:
Pre-coat ELISA Plate • 1. […] Coated plates are good for up to 10 days when stored at 4° C. • 2. On day of use, remove coating buffer and replace with 100 μl blocking buffer (5% Carnation Instant Non-Fat Dry Milk in PBS). Incubate the plate, shaking, at room temperature (about 23° C. to 25° C.) for 30 minutes. Just prior to use, remove blocking buffer and wash plate 4 times with TBST buffer.
Seeding Cells • 1. An NIH3T3 cell line overexpressing a chimeric receptor containing the EGFR extracellular domain and intracellular HER2 kinase domain can be used for this assay. • 2. Choose dishes having 80-90% confluence for the experiment. Trypsinize cells and stop reaction by adding 10% fetal bovine serum. Suspend cells in DMEM medium (10% CS DMEM medium) and centrifuge once at 1500 rpm, at room temperature for 5 minutes. • 3. Resuspend cells in seeding medium (DMEM, 0.5% bovine serum), and count the cells using trypan blue. Viability above 90% is acceptable. Seed cells in DMEM medium (0.5% bovine serum) at a density of 10,000 cells per well, 100 μl per well, in a 96 well microtiter plate. Incubate seeded cells in 5% CO2. at 37° C. for about 40 hours.
Assay Procedures • 1. Check seeded cells for contamination using an inverted microscope. Dilute drug stock (10 mg/ml in DMSO) 1:10 in DMEM medium, then transfer 5 μl to a […] well for a final drug dilution of 1:200 and a final DMSO concentration of 1%. Control wells receive DMSO alone. Incubate in 5% CO2 at 37° C. for two hours. • 2. Prepare EGF ligand: dilute stock EGF in DMEM so that upon transfer of 10 μl dilute EGF (1:12 dilution), 100 nM final concentration is attained. • 3. Prepare fresh HNTG* sufficient for 100 μl per well, and place on ice.
• 4. After 120 minutes incubation with drug, add prepared […] ligand to cells, 10 μl per well, to a final concentration of 100 nM. Control wells receive DMEM alone. Incubate with shaking, at room temperature, for 5 minutes. • 5. Remove drug, EGF, and DMEM. Wash cells twice with PBS. Transfer HNTG* to cells, 100 μl per well. Place on ice for 5 minutes. Meanwhile, remove blocking buffer from other ELISA plate and wash with TBST as described above. • 6. With a pipette tip securely fitted to a micropipettor, scrape cells from plate and homogenize cell material by repeatedly aspirating and dispensing the HNTG* lysis buffer. Transfer lysate to a coated, blocked, and washed ELISA plate. Incubate shaking at room temperature for one hour. • 7. Remove lysate and wash 4 times with TBST. Transfer freshly diluted anti-Ptyr antibody to ELISA plate at 100 μl per well. Incubate shaking at room temperature for 30 minutes in the presence of the anti-Ptyr antiserum (1:3000 dilution in TBST). • 8. Remove the anti-Ptyr antibody and wash 4 times with TBST. Transfer the freshly diluted TAGO anti-rabbit IgG antibody to the ELISA plate at 100 μl per well. Incubate shaking at room temperature for 30 minutes (anti-rabbit IgG antibody: 1:3000 dilution in TBST). • 9. Remove TAGO detection antibody and wash 4 times with TBST. Transfer freshly prepared ABTS/H2O2 solution to ELISA plate, 100 μl per well. Incubate shaking at room temperature for 20 minutes. (ABTS/H2O2 solution: 1.0 μl 30% H2O2 in 10 ml ABTS stock). • 10. Stop reaction by adding 50 μl 5N H2SO4 (optional), and determine O.D. at 410 nm. • 11. The maximal phosphotyrosine signal is determined by subtracting the value of the negative controls from the positive controls. […]

T1 sequence (P35968 786-1356 limits assumed): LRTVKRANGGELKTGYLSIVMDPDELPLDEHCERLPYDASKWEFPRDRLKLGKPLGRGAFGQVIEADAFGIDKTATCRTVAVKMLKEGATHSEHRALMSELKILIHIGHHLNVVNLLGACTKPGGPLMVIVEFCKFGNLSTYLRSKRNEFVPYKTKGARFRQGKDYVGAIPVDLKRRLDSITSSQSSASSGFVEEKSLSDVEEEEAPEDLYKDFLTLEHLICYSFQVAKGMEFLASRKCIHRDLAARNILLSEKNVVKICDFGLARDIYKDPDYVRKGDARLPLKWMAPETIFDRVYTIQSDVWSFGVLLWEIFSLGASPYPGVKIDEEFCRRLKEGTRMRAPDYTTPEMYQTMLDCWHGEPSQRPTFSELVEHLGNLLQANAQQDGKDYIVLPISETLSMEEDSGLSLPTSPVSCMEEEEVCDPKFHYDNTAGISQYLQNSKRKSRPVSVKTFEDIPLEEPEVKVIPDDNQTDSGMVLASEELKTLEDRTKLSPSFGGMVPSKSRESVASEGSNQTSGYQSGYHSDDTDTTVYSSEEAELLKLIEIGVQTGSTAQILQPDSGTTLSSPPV
T2 sequence (P09619 33-1106): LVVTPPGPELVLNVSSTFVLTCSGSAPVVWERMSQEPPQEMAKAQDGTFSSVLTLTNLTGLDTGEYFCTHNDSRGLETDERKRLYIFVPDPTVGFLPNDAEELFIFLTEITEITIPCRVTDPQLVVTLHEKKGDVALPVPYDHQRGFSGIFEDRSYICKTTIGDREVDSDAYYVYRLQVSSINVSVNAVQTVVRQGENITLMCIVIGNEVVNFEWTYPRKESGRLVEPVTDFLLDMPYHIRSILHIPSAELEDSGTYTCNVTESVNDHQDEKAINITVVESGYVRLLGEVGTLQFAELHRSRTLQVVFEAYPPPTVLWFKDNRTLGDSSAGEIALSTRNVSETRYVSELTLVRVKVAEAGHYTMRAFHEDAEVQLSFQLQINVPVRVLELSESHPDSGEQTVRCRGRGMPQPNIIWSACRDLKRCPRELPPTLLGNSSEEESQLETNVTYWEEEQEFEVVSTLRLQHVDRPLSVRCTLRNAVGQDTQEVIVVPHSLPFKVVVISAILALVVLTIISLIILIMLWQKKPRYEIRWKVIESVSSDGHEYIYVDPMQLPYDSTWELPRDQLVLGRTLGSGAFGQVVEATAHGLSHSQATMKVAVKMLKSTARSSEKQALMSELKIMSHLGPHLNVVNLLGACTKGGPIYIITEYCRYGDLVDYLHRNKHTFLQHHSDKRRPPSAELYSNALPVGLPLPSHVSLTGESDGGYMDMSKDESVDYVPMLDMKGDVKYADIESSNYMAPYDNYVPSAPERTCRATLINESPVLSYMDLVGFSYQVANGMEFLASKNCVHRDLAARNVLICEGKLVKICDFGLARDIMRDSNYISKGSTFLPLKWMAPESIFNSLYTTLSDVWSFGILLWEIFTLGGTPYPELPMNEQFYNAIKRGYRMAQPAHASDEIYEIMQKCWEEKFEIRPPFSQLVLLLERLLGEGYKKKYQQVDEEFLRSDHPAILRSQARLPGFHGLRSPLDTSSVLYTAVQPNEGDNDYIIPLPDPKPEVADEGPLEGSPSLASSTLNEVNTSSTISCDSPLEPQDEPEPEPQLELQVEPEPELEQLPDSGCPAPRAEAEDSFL

IC50 [1] [µM]	IC50 [2] [µM]	IC50 [3] [µM]	IC50 [4] [µM]	Compound
13.5	> 100	> 20		CCOC(=O)c1[nH]c(/C=C2\C(=O)Nc3ccccc32)c(CCC(=O)O)c1C [Example 117, 4-(2-Carboxyethyl)-3-methyl-5-(2-oxo-1,2-dihydroindol-3-ylidenemethyl)-1H-pyrrole-2-carboxylic acid ethyl ester]
1	26.7			CCOC(=O)c1c(C)[nH]c(/C=C2\C(=O)Nc3ccc(OC)cc32)c1CCCN1CCOCC1 [Example 121, 5-(5-Methoxy-2-oxo-1,2-dihydroindol-3-ylidenemethyl)-2-methyl-4-(3-morpholin-4-ylpropyl)-1H-pyrrole-3-carboxylic acid ethyl ester]
0.51	2.13			CCOC(=O)c1c(C)[nH]c(/C=C2\C(=O)Nc3ccc(OC)cc32)c1CCCN1CCN(C)CC1 [Example 122, 5-(5-Methoxy-2-oxo-1,2-dihydroindol-3-ylidenemethyl)-2-methyl-4-[3-(4-methylpiperazin-1-yl)-propyl]-1h-pyrrole-3-carboxylic acid ethyl ester]
14.8	63.3			CCOC(=O)c1c(C)[nH]c(/C=C2\C(=O)Nc3ccc(S(=O)(=O)NC)cc32)c1CCCN1CCCC1 [Example 126, 2-Methyl-5-(5-methylsulfamoyl-2-oxo-1,2-dihydroindol-3-ylidenemethyl)-4-(3-pyrrolidin-1-ylpropyl)-1H-pyrrole-3-carboxylic acid ethyl ester]
12.9	2.32			CCOC(=O)c1c(C)[nH]c(/C=C2\C(=O)Nc3ccc(S(N)(=O)=O)cc32)c1CCCN1CCCC1 [Example 130, 2-Methyl-5-(2-oxo-5-sulfamoyl-1,2-dihydroindol-3-ylidenemethyl)-4-(3-pyrrolidin-1-ylpropyl)-1H-pyrrole-3-carboxylic acid ethyl ester]
8.18	2.69			CCOC(=O)c1c(C)[nH]c(/C=C2\C(=O)Nc3ccc(S(N)(=O)=O)cc32)c1CCCN(C)C [Example 133, 4-(3-Dimethylaminopropyl)-2-methyl-5-(2-oxo-5-sulfamoyl-1,2-dihydroindol-3-ylidenemethyl)-1H-pyrrole-3-carboxylic acid ethyl ester]
0.71	0.65			COc1ccc2c(c1)/C(=C/c1[nH]c3ccccc3c1CCCN(C)C)C(=O)N2 [Example 151, 3-[3-(3-Dimethylaminopropyl)-1H-indol-2-ylmethylene]-5-methoxy-1,3-dihydroindol-2-one]
		> 20	> 100	Cc1ccc2c(c1)/C(=C/c1[nH]c3ccccc3c1C)C(=O)N2 [Example 152, 5-Methyl-3-(3-methyl-1H-indol-2-ylmethylene)-1,3-dihydro-indol-2-one]
	> 100	> 20	> 100	Cc1c(/C=C2\C(=O)Nc3ccc(S(N)(=O)=O)cc32)[nH]c2ccccc12 [Example 153, 3-(3-Methyl-1H-indol-2-ylmethylene)-2-oxo-2,3-dihydro-1H-indole-5-sulfonic acid amide]
	> 100	> 20	> 100	CC(=O)c1ccc2c(c1)C(=Cc1[nH]c3ccccc3c1C)C(=O)N2 [Example 157, 5-Acetyl-3-(3-methyl-1H-indol-2-ylmethylene)-1,3-dihydroindol-2-one]
	8.02	> 20		O=C1Nc2cc(Cl)ccc2/C1=C/c1cc2ccccc2[nH]1 [Example 162, 6-Chloro-3-(1H-indol-2-ylmethylene)-1,3-dihydro-indol-2-one]
	> 100	> 20		O=C1Nc2ccccc2/C1=C/c1cc2ccccc2[nH]1 [Example 163, 3-(1H-Indol-2-ylmethylene)-1,3-dihydro-indol-2-one]
	> 100	> 20	> 100	O=C1Nc2ccc(Cl)cc2/C1=C/c1cc2ccccc2[nH]1 [Example 164, 5-Chloro-3-(1H-indol-2-ylmethylene)-1,3-dihydro-indol-2-one]
	> 100	> 20		Cc1c(/C=C2\C(=O)Nc3ccccc32)[nH]c2ccccc12 [Example 167, 3-(3-Methyl-1H-indol-2-ylmethylene)-1,3-dihydro-indol-2-one]
	> 100	> 20		Cc1c(/C=C2\C(=O)Nc3ccc(Cl)cc32)[nH]c2ccccc12 [Example 168, 5-Chloro-3-(3-methyl-1H-indol-2-ylmethylene)-1,3-dihydro-indol-2-one]
